In ChEMBL document CHEMBL1157335, “Aromatic constituents of Uvaria grandiflora” (J Nat Prod, 2006) one finds IC90 and IC50 data, which are given here for three compounds.

For orientation: IC90 means the concentration needed for an effect of 90%. By IC50 is commonly meant the concentration that gives 50% inhibition.

For this assay, the system named is Leishmania donovani. The assay can be described thus: Antileishmanial activity against Leishmania donovani promastigotes after 48 hrs by alamar blue assay. The assay is classed as functional, organism-based. Background: The colour change of resazurin is a common sign of viable cells or microbes.

≈ marks a conversion by molar mass, not a printed value.

Turning to `N=C(N)c1ccc(OCCCCCOc2ccc(C(=N)N)cc2)cc1` [PENTAMIDINE], the IC90 stood at 6.6 µg/mL (≈ 19.4 µM).
Take `CC(=O)O[C@H]1C(=O)C=COC=C1COC(=O)c1ccccc1` [GRANDIUVARONE A]: the IC50 was determined as 0.7 µg/mL (≈ 2.32 µM) and the IC90 amounted to 1.5 µg/mL (≈ 4.96 µM).
Consider `C[C@@H]1[C@H](O)[C@@H](C)/C=C/C=C/C=C/C=C/C=C/C=C/C=C/[C@H](O[C@@H]2O[C@H](C)[C@@H](O)[C@H](N)[C@@H]2O)C[C@@H]2O[C@](O)(C[C@@H](O)C[C@@H](O)[C@H](O)CC[C@@H](O)C[C@@H](O)CC(=O)O[C@H]1C)C[C@H](O)[C@H]2C(=O)O` [AMPHOTERICIN B], for which it took 0.34 µg/mL (≈ 0.368 µM) to reach the 90% level (IC90).
